Like-named read-outs stand apart in the source and are kept apart here.
How the values were obtained:
[1] = tested on: PC-3 (prostate, adenocarcinoma) cells; experiment: Cell viability assay, CellTiter-Glo (Example 21); format: cell-based, human; settings: 72 h treatment
Method: (§1) Effect of the selected compounds on cancer cell viability was measured via CellTiter-Glo® luminescent cell viability assay (Promega, Madison, WI, USA) according to the manufacturer's instructions. Cells were plated onto a flat-bottomed, white 96 well plate (BRANDplates®, cat. no.: 781965). Density of the seeded cells was optimized based on their size and growth rate, as the follows: Panc-1:750 cells/well; DU 145, PC-3, Capan-1, MIA PaCa-2, SCC-25, FaDu and EBC-1: 1000 cells/well; LNCaP, Detroit 562, MDA-MB-231 and MDA-MB-453 1500 cells/well. […] After the treatment, the luminescence signal was recorded using a microplate reader (BioTek Synergy 2 Multi-Mode Reader, BioTek, Winooski, VT, USA). Dose-response curves were generated by GraphPad Prism 8.4.2. software using a non-linear regression model (variable slope, four parameters), (see FIGS. 12-51).

[2] = tested on: Panc-1 (pancreas, carcinoma) cells; experiment: Cell viability assay, CellTiter-Glo (Example 21); format: cell-based, human; settings: 72 h treatment
Method: as §1

[3] = tested on: Detroit 562 (pharynx, carcinoma) cells; experiment: Cell viability assay, CellTiter-Glo (Example 21); format: cell-based, human; settings: 72 h treatment
Method: as §1

[4] = tested on: LNCaP (prostate, carcinoma) cells; experiment: Cell viability assay, CellTiter-Glo (Example 21); format: cell-based, human; settings: 72 h
Method: as §1

[5] = tested on: MIA PaCa-2 (pancreas, carcinoma) cells; experiment: Cell viability assay, CellTiter-Glo (Example 21); format: cell-based, human; settings: 72 h treatment
Method: as §1

[6] = tested on: EBC-1 (lung, squamous cell carcinoma) cells; experiment: Cell viability assay, CellTiter-Glo (Example 21); format: cell-based, human; settings: 72 h treatment
Method: as §1

[7] = tested on: FaDu (pharynx, squamous cell carcinoma) cells; experiment: Cell viability assay, CellTiter-Glo (Example 21); format: cell-based, human; settings: 72 h treatment
Method: as §1

[8] = tested on: Capan-1 (pancreas, adenocarcinoma) cells; experiment: Cell viability assay, CellTiter-Glo (Example 21); format: cell-based, human; settings: 72 h treatment
Method: as §1

[9] = tested on: MDA-MB-453 (breast, carcinoma) cells; experiment: Cell viability assay, CellTiter-Glo (Example 21); format: cell-based, human; settings: 72 h treatment
Method: as §1

[10] = tested on: MDA-MB-231 (breast, adenocarcinoma) cells; experiment: Cell viability assay, CellTiter-Glo (Example 21); format: cell-based, human; settings: 72 h treatment
Method: as §1

[11] = tested on: DU 145 (prostate, carcinoma) cells; experiment: Cell viability assay, CellTiter-Glo (Example 21); format: cell-based, human; settings: 72 h
Method: as §1

[12] = tested on: SCC-25 (tongue, squamous cell carcinoma) cells; experiment: Cell viability assay, CellTiter-Glo (Example 21); format: cell-based, human; settings: 72 h treatment
Method: as §1

Panc-1 human cell line = experiment: Cytotoxicity on Panc-1, xCELLigence SP, IC50 after 24 h, 48 h, 72 h and 96 h (Example 22)
[13] = tested on: PANC-1 (human pancreatic carcinoma) cells; experiment: Impedance-based viability assay (xCELLigence SP), long treatment; format: cell-based; settings: 72 h, read-out: cytotoxicity expressed in IC50, PANC-1
Excerpt: (Gibco®/Invitrogen Corporation, New York, NY, USA).
Data obtained from each experiment represent mathematical averages.

Compound: O=C1C2=C(CCN(Cc3cccc(F)c3)C2)N2CCN=C2N1Cc1ccc(C(F)(F)F)cc1 [I/3, reference compound]
- PC-3 (prostate, adenocarcinoma) cell viability (% of control) ([1]; 3.7 nM): 100.8 ± 4.0 % of control
- PC-3 (prostate, adenocarcinoma) cell viability (% of control) ([1]; 11.1 nM): 110.2 ± 4.1 % of control
- PC-3 (prostate, adenocarcinoma) cell viability (% of control) ([1]; 100 nM): 34.7 ± 1.0 % of control
- PC-3 (prostate, adenocarcinoma) cell viability (% of control) ([1]; 300 nM): 32.3 ± 2.6 % of control
- Panc-1 (pancreas, carcinoma) cell viability (% of control) ([2]; 3.7 nM): 105.8 ± 4.0 % of control
- Panc-1 (pancreas, carcinoma) cell viability (% of control) ([2]; 11.1 nM): 105.7 ± 4.2 % of control
- Panc-1 (pancreas, carcinoma) cell viability (% of control) ([2]; 100 nM): 59.9 ± 17.3 % of control
- Panc-1 (pancreas, carcinoma) cell viability (% of control) ([2]; 300 nM): 53.9 ± 6.5 % of control
- Detroit 562 (pharynx, carcinoma) cell viability (% of control) ([3]; 3.7 nM): 99.5 ± 8.4 % of control
- Detroit 562 (pharynx, carcinoma) cell viability (% of control) ([3]; 11.1 nM): 44.3 ± 11.0 % of control
- Detroit 562 (pharynx, carcinoma) cell viability (% of control) ([3]; 100 nM): 28.9 ± 5.3 % of control
- Detroit 562 (pharynx, carcinoma) cell viability (% of control) ([3]; 300 nM): 28.7 ± 4.1 % of control
- LNCaP cell viability ([4]; 3.7 nM): 98.7 ± 7.4 % of control
- LNCaP cell viability ([4]; 11.1 nM): 95.0 ± 7.4 % of control
- LNCaP cell viability ([4]; 100 nM): 13.8 ± 1.7 % of control
- LNCaP cell viability ([4]; 300 nM): 12.7 ± 1.2 % of control
- MIA PaCa-2 (pancreas, carcinoma) cell viability (% of control) ([5]; 3.7 nM): 107.1 ± 16.4 % of control
- MIA PaCa-2 (pancreas, carcinoma) cell viability (% of control) ([5]; 11.1 nM): 105.2 ± 3.4 % of control
- MIA PaCa-2 (pancreas, carcinoma) cell viability (% of control) ([5]; 100 nM): 17.5 ± 7.9 % of control
- MIA PaCa-2 (pancreas, carcinoma) cell viability (% of control) ([5]; 300 nM): 17.2 ± 7.5 % of control
- EBC-1 (lung, squamous cell carcinoma) cell viability (% of control) ([6]; 3.7 nM): 97.8 ± 4.0 % of control
- EBC-1 (lung, squamous cell carcinoma) cell viability (% of control) ([6]; 11.1 nM): 96.3 ± 1.4 % of control
- EBC-1 (lung, squamous cell carcinoma) cell viability (% of control) ([6]; 100 nM): 25.1 ± 0.2 % of control
- EBC-1 (lung, squamous cell carcinoma) cell viability (% of control) ([6]; 300 nM): 22.2 ± 0.1 % of control
- FaDu (pharynx, squamous cell carcinoma) cell viability (% of control) ([7]; 3.7 nM): 101.6 ± 3.4 % of control
- FaDu (pharynx, squamous cell carcinoma) cell viability (% of control) ([7]; 11.1 nM): 100.9 ± 5.9 % of control
- FaDu (pharynx, squamous cell carcinoma) cell viability (% of control) ([7]; 100 nM): 26.2 ± 7.9 % of control
- FaDu (pharynx, squamous cell carcinoma) cell viability (% of control) ([7]; 300 nM): 22.4 ± 5.9 % of control
- Capan-1 (pancreas, adenocarcinoma) cell viability (% of control) ([8]; 3.7 nM): 102.7 ± 6.9 % of control
- Capan-1 (pancreas, adenocarcinoma) cell viability (% of control) ([8]; 11.1 nM): 101.5 ± 5.5 % of control
- Capan-1 (pancreas, adenocarcinoma) cell viability (% of control) ([8]; 100 nM): 38.7 ± 2.8 % of control
- Capan-1 (pancreas, adenocarcinoma) cell viability (% of control) ([8]; 300 nM): 33.0 ± 2.2 % of control
- MDA-MB-453 (breast, carcinoma) cell viability (% of control) ([9]; 3.7 nM): 110.3 ± 7.7 % of control
- MDA-MB-453 (breast, carcinoma) cell viability (% of control) ([9]; 11.1 nM): 97.0 ± 13.3 % of control
- MDA-MB-453 (breast, carcinoma) cell viability (% of control) ([9]; 100 nM): 33.2 ± 2.0 % of control
- MDA-MB-453 (breast, carcinoma) cell viability (% of control) ([9]; 300 nM): 29.8 ± 1.5 % of control
- MDA-MB-231 (breast, adenocarcinoma) cell viability (% of control) ([10]; 3.7 nM): 101.4 ± 1.4 % of control
- MDA-MB-231 (breast, adenocarcinoma) cell viability (% of control) ([10]; 11.1 nM): 99.8 ± 1.8 % of control
- MDA-MB-231 (breast, adenocarcinoma) cell viability (% of control) ([10]; 100 nM): 56.5 ± 3.4 % of control
- MDA-MB-231 (breast, adenocarcinoma) cell viability (% of control) ([10]; 300 nM): 53.7 ± 3.1 % of control
- DU 145 cell viability ([11]; 3.7 nM): 102.0 ± 3.5 % of control
- DU 145 cell viability ([11]; 11.1 nM): 95.9 ± 5.1 % of control
- DU 145 cell viability ([11]; 100 nM): 7.1 ± 1.6 % of control
- DU 145 cell viability ([11]; 300 nM): 7.2 ± 1.2 % of control
- SCC-25 (tongue, squamous cell carcinoma) cell viability (% of control) ([12]; 3.7 nM): 101.0 ± 4.9 % of control
- SCC-25 (tongue, squamous cell carcinoma) cell viability (% of control) ([12]; 11.1 nM): 95.1 ± 5.1 % of control
- SCC-25 (tongue, squamous cell carcinoma) cell viability (% of control) ([12]; 100 nM): 34.9 ± 3.9 % of control
- SCC-25 (tongue, squamous cell carcinoma) cell viability (% of control) ([12]; 300 nM): 33.1 ± 1.7 % of control
- IC50 (Panc-1 human cell line; PANC-1, 72 h, read-out: IC50 (72 h) [nM]): 45.3 ± 3.34 nM
- IC50 (Panc-1 human cell line; PANC-1, 96 h, read-out: IC50 (96 h) [nM]): 22.6 ± 0.856 nM
- IC50 [13]: 44 nM

From US20230295162A1 (EÖTVÖS LORÁND TUDOMÁNYEGYETEM, priority 2020, published 2023)
